According to patent publication US20240109942A1, “CHOLECYSTOKININ (CCK) SECRETION-PROMOTING PEPTIDE TARGETING CALCIUM-SENSING RECEPTOR, AND PREPARATION METHOD AND USE THEREOF” (University of Shanghai for Science and Technology, priority 2022, published 2024):
Where no end group is shown, it is not given here.

Test system: STC-1 cell
Experiment: MTT cell proliferation and cytotoxicity assay on STC-1 cell
Format: cell-based
Details: absorbance 570 nm, peptide 0, 1, 2, 4 mmol/L, FIG. 2
Description: An STC-1 cell was cultured in a dulbecco's modified eagle medium (DMEM) containing 10% fetal bovine serum (FBS), 1% non-essential amino acids (NEAA), 100 U/mL penicillin and 0.1 mg/mL streptomycin. The cell was incubated in a cell incubator containing 5% CO2 at 37° C. and was subcultured by means of trypsin digestion when reaching 80%-90% density.
The effect of the active peptide of QGDVVALPA on the viability of the STC-1 cell was tested and evaluated by means of 3-(4,5-dimethylthiazol-2-yl)-2,5-diphenyltetrazolium bromide [3-(4,5-di methyl-2-thiazolyl)-2,5-di phenyl]-2H-tetrazolium bromide, methyl thiazolyl tetrazolium (MTT)) cell proliferation and cytotoxicity. MTT was added into the STC-1 cell treated in a 96-well plate, and a metabolically active cell cleaved yellow tetrazolium salt MTT into a purple formazan crystal. Formazan formed was dissolved, absorbance was measured with a microplate reader at a measurement wavelength of 570 nm, and results were expressed as a percentage of a control group.

QGDVVALPA [QGDVVALPA, Gln-Gly-Asp-Val-Val-Ala-Leu-Pro-Ala]
viability of the STC-1 cell compared with the control group: not changed
